These compounds were tested against SNAP-hSPR (sepiapterin reductase, SPR) (Homo sapiens, UniProt P35270) (assay: biochemical). Conditions: terbium labelled SNAP-hSPR / SSZ labelled SNAP-EGFP; read-out: hTR-FRET IC50.
Assay type: binding

Sequence of SNAP-hSPR (sepiapterin reductase, SPR) (P35270 whole entry): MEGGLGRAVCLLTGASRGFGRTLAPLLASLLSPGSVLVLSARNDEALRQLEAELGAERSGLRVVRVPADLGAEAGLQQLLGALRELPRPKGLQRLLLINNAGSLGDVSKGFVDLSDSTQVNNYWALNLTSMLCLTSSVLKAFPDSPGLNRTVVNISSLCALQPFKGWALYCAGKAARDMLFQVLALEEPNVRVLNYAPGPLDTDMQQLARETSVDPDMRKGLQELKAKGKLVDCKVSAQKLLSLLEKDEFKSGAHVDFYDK

Point of comparison: Cc1cc(=O)[nH]c(-c2c(C)nn(CCC(=O)N3CCc4ccccc4C3)c2C)n1 [Q-0284], IC50 2900 nM. Against it:
- Cc1cc(=O)[nH]c(-c2cnn(CCC(=O)N3CCc4ccccc4C3)c2)n1 (single isomer, unassigned) [Q-0291, 6-methyl-2-{1-[3-oxo-3-(1,2,3,4-tetrahydroisoquinolin-2-yl)propyl]-1H-pyrazol-4-yl}-3,4-dihydropyrimidin-4-one] — within 1.5-fold, 2700 nM
- Cc1cc(-c2cnn(CCC(=O)N3CCc4ccccc4C3)c2)[nH]c(=O)n1 (single isomer, unassigned) [Q-0292, 4-methyl-6-{1-[3-oxo-3-(1,2,3,4-tetrahydroisoquinolin-2-yl)propyl]-1H-pyrazol-4-yl}-1,2-dihydropyrimidin-2-one] — 14-fold higher, 40000 nM
- Cc1nc(-n2ncc(C(=O)N3c4ccccc4C[C@@H]3C)c2C)[nH]c(=O)c1C (single isomer, unassigned) [Q-0457] — 29-fold lower, 100 nM
- Cc1cc(=O)[nH]c(-n2nc(C)c(CCC(=O)N3CCCCC3C)c2C)n1 (stereo not shown) [Q-0002] — 97-fold lower, 30 nM
- COc1ccccc1NC(=O)c1cnn(-c2nc(C)cc(=O)[nH]2)c1C [Q-0004] — 41-fold lower, 70 nM
- Cc1cc(=O)[nH]c(-n2ncc(C(=O)NCCc3ccc(F)cc3)c2C)n1 [Q-0007] — 29-fold lower, 100 nM
- Cc1cc(=O)[nH]c(-c2cnn(CCC(=O)N3CCCC3)c2)n1 [Q-0283, 6-methyl-2-{1-[3-oxo-3-(pyrrolidin-1-yl)propyl]-1H-pyrazol-4-yl}-3,4-dihydropyrimidin-4-one] — 1.9-fold lower, 1500 nM
- Cc1cc(-c2c(C)nn(CCC(=O)N3CCc4ccccc4C3)c2C)[nH]c(=O)n1 [Q-0285, 4-{3,5-dimethyl-1-[3-oxo-3-(1,2,3,4-tetrahydroisoquinolin-2-yl)propyl]-1H-pyrazol-4-yl}-6-methyl-1,2-dihydropyrimidin-2-one] — 14-fold higher, 40000 nM
- Cc1cc(=O)[nH]c(-n2ncc(C(=O)N3CCc4ccc(C#N)cc4C3)c2C)n1 [Q-0286] — 290-fold lower, 10 nM
- Cc1cc(=O)[nH]c(-n2ncc(C(=O)O)c2C)n1 [Q-0290] — within 1.5-fold, 2000 nM
- Cc1cc(=O)[nH]c(-n2nc(C)c(CC(=O)N3CCCC3)c2C)n1 [Q-0301] — 14-fold lower, 200 nM
- Cc1cc(=O)[nH]c(-c2c(C)nn(CCC(=O)N3CCCC3)c2C)n1 [Q-0306] — 8.6-fold higher, 25000 nM
- CNC(=O)c1cnn(-c2nc(C)cc(=O)[nH]2)c1C [Q-0316] — 9.7-fold lower, 300 nM
- Cc1c(C(=O)N2CCOCC2)cnn1-c1nc2ccccc2c(=O)[nH]1 [Q-0320] — 2.2-fold lower, 1300 nM
- Cc1c(C(=O)NC2CCCC2)cnn1-c1nc2ccccc2c(=O)[nH]1 [Q-0321] — 3.2-fold lower, 900 nM
- Cc1cc(=O)[nH]c(-n2ncc(C(=O)N3CCC4(CCN(C)C4)C3)c2C)n1 (stereo not shown) [Q-0322] — 14-fold lower, 200 nM
- Cc1c(C(=O)N2CCc3ccccc3C2)cnn1-c1nc2cc(Cl)sc2c(=O)[nH]1 [Q-0394] — 1.9-fold lower, 1500 nM
- Cc1cc2nc(-n3ncc(C(=O)N4CCc5ccccc5C4)c3C)[nH]c(=O)c2s1 [Q-0407] — 1.7-fold lower, 1700 nM
- Cc1cc2c(=O)[nH]c(-n3ncc(C(=O)N4CCC(C(F)(F)F)CC4)c3C)nc2s1 [Q-0413] — within 1.5-fold, 2200 nM
- CCC1Cc2ccccc2N1C(=O)c1cnn(-c2nc(C)cc(=O)[nH]2)c1C (stereo not shown) [Q-0420] — 410-fold lower, 7 nM
- Cc1nc(-n2ncc(C(=O)N3CCC(C(F)(F)F)CC3)c2C)cc(=O)[nH]1 [Q-0436] — 1.6-fold higher, 4600 nM
- Cc1nc(-n2ccc(C(=O)N3CCC(C(F)(F)F)CC3)n2)cc(=O)[nH]1 [Q-0437, 2-methyl-6-{3-[4-(trifluoromethyl)piperidine-1-carbonyl]-1H-pyrazol-1-yl}-3,4-dihydropyrimidin-4-one] — 1.7-fold higher, 5000 nM
- Cc1c(C(=O)N2CCC(C(F)(F)F)CC2)cnn1-c1nc2ccnn2c(=O)[nH]1 [Q-0447] — 7.2-fold lower, 400 nM
- Cc1c(C(=O)N2CCC(C(F)(F)F)CC2)cnn1-c1nc2nc[nH]c2c(=O)[nH]1 [Q-0448] — 1.9-fold lower, 1500 nM
- O=C(c1cnn(-c2cc3nccn3c(=O)[nH]2)c1)N1CCC(C(F)(F)F)CC1 [Q-0452] — 3.6-fold lower, 800 nM
- Cc1cc(-n2ncc(C(=O)N3CCC(C(F)(F)F)CC3)c2C)[nH]c(=O)n1 [Q-0454] — 9.7-fold lower, 300 nM
- Cc1cc(=O)n(C)c(-n2ncc(C(=O)N3CCc4ccccc4C3)c2C)n1 [Q-0455] — 5.5-fold higher, 16000 nM

Reference: patent US9963462B2 (priority 2015, dated 2018)
